We go through 3 compounds from patent publication US6905714B2, “Method for modulating steroidogenic activity” (priority 2000, dated 2005).

Entries after “also recorded” stand apart in the source; their conditions may differ.

The target of one data set is T1, glucocorticoid receptor (Homo sapiens, UniProt P04150).
T1 construct: expressed in transfected cells
T1 sequence (P04150 1-777): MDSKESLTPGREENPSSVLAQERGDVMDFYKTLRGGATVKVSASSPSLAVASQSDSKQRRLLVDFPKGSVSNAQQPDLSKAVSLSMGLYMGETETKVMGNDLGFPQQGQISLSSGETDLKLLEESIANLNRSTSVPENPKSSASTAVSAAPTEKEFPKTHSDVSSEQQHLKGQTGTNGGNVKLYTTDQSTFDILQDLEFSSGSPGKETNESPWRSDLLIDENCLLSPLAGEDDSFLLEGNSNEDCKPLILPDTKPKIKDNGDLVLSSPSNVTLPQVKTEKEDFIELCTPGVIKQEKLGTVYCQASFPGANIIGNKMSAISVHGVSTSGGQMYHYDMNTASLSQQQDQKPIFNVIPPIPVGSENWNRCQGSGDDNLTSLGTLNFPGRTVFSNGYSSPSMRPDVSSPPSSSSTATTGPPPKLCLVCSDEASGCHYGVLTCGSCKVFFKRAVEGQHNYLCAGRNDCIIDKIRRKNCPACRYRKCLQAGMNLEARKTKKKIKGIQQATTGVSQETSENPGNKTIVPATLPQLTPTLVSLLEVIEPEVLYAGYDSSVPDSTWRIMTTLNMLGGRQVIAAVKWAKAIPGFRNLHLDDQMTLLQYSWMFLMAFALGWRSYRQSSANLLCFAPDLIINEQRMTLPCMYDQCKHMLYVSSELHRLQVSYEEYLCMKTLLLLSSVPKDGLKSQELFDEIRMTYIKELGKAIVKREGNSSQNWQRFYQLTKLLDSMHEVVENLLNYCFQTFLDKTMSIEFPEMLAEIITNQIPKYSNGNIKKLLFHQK
Put plainly: Glucocorticoid receptor transactivation, luciferase reporter in HeLa cells. The data set is classed as cell-based. (In general: In a reporter assay the amount or activity of a reporter protein is the signal.)

The next data set addresses T2, androgen receptor (Homo sapiens, UniProt P10275).
T2 sequence (P10275 1-920): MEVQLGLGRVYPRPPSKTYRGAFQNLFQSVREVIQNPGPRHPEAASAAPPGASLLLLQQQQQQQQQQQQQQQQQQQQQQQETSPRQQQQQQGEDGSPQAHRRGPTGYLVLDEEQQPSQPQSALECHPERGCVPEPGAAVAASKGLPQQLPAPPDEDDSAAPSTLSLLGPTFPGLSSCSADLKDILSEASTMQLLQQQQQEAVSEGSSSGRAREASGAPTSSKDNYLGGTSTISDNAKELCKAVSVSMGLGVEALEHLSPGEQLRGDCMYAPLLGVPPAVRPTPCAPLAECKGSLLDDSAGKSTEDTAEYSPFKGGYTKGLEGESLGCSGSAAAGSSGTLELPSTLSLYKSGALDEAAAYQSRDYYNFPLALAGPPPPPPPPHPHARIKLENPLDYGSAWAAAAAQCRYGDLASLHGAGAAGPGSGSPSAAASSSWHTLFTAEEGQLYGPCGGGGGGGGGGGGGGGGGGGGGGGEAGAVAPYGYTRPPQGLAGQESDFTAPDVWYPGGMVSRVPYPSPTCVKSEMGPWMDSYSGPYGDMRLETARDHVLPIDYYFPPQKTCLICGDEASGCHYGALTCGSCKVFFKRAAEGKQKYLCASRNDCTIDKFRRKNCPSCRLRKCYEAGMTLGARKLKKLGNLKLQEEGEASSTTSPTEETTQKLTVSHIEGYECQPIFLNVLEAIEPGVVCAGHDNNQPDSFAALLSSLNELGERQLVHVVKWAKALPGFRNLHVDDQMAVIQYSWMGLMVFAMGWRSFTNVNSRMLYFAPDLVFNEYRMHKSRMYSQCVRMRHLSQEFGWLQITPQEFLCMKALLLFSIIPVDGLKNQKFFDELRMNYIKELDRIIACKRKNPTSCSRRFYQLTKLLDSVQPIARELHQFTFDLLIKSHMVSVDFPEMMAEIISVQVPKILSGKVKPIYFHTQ
Conditions: 0.3 to 10 nM; 3 nM tritiated testosterone.

The target in a further data set is T3, progesterone receptor (Homo sapiens, UniProt P06401).
T3 sequence (P06401 1-933): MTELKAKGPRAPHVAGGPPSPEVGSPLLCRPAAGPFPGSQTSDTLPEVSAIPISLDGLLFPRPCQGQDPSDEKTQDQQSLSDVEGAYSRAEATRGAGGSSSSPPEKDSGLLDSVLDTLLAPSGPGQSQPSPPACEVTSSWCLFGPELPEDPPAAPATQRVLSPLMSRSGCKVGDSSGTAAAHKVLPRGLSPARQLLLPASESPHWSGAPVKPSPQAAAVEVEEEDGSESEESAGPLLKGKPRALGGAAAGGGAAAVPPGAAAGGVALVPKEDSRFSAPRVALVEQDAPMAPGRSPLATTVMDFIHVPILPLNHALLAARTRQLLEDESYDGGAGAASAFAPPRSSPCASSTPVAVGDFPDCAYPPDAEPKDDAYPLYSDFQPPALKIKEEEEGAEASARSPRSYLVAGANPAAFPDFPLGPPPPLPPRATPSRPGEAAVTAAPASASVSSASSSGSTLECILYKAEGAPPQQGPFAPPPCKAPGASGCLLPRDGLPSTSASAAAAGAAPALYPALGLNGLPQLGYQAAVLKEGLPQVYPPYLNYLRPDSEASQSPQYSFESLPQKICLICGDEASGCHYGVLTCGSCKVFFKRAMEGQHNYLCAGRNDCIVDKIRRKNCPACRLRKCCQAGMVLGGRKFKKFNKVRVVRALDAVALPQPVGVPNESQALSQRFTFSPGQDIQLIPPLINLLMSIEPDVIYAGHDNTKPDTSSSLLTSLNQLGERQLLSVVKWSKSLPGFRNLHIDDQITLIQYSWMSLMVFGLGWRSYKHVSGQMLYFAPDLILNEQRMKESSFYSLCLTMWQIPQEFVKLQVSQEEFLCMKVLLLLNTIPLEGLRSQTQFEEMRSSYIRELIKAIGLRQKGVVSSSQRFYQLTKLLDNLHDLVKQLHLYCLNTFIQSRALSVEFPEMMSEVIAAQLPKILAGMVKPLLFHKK
Description: Progesterone receptor transactivation, luciferase reporter in HeLa cells.

The subject of data set [1] is ventral prostate gland, immature Wistar rats. Description: Growth of the ventral prostate gland in immature Wistar rats. Conditions: testosterone intramuscularly, alone (FIG. 6a). The data set is classed as in vivo, rat. Here is the method:
The growth of the ventral prostate gland, an androgen-dependent tissue, in immature Wistar rats was measured.
To determine the androgenic effect of an ethanolic EU extract in animals, the growth of the ventral prostate gland, an androgen-dependent tissue, in immature Wistar rats was measured. […] In this model, exogenous androgen administration can be directly correlated with the growth of the ventral prostate.

Description for glucocorticoid receptor: (§1) Thus, HeLa cells were cotransfected with an androgen receptor (AR) expression plasmid, a plasmid for expression of β-galactosidase (β-gal) and a luciferase reporter plasmid, ARE-Tata-luc (Jenster 1997) and then incubated with ethanol as a solvent control, or with the herbal extracts indicated in Table 1. Herbal extracts were added to the cells six hours after transfection. Thirty-six hours later, the cells were harvested and cell extracts assayed for luciferase activity.
(§2) The DNA mix contained an AR expression vector, a reporter gene vector (ARE-Tata-Luc) and a βGal vectors, the last for purposes of normalizing results for the transfection efficiency. The AR expression vector comprises a cDNA encoding AR and expressed from a SV40 promoter and a rabbit β-globin polyadenylation signal, all cloned in a pBR328 vector. The β-gal vector comprises a bacterial lacZ gene under control of an SV40 promoter-enhancer. The DNA mix was preincubated for 45 min at room temperature with lipofectamine (Promega, Madison, Wis.) in a 400 μl serum-free medium. […] Cell lysates (100 μl) were added to 20 μl of luciferase substrate and luciferase activity measured with a luminometer. Transfection efficiency was assessed by βGal activity and luciferase activity normalized to the protein content of the cell lysates. Total protein in the supernatant was quantified with bovine serum albumin as the standard.
Description for progesterone receptor: as §1, §2

For the compound `C[C@]12CCC(=O)C=C1CC[C@@H]1[C@@H]2[C@@H](O)C[C@@]2(C)[C@H]1CC[C@]2(O)C(=O)CO` [Cortisol, cortisol], on glucocorticoid receptor (substance alone), the “Ratio of Luc activity as percentage (%) of 1 nM ligand” value is 100%. At glucocorticoid receptor (substance alone (extract, or 1 nM cortisol)), the “Luc activity (fold induction)” value is listed as 194 fold. Further, the “displacement of tritiated testosterone” value on androgen receptor is recorded as “does not displace tritiated testosterone”.

For `CC(=O)[C@H]1CC[C@H]2[C@@H]3CCC4=CC(=O)CC[C@]4(C)[C@H]3CC[C@]12C` [Progesterone, progesterone], the “Ratio of Luc activity as percentage (%) of 1 nM ligand” value on progesterone receptor (substance alone) is given as 100%. Besides, the “Luc activity (fold induction)” value on progesterone receptor (substance alone (extract, or 1 nM progesterone)) is on record as 67 fold.

Consider `C[C@]12CC[C@H]3[C@@H](CCC4=CC(=O)CC[C@@]43C)[C@@H]1CC[C@@H]2O` [testosterone], for which the “prostate weight (per unit body weight)” value in data set [1] was “dose-dependent increase in prostate weight; also recorded: dose-dependent increments in prostatic weight”.
